Among the data in patent publication US20110081316A1, “PYRAZOLE INHIBITORS OF PHOSPHATIDYLINOSITOL 3-KINASE” (VERTEX PHARMACEUTICALS INCORPORATED, priority 2009, published 2011) are Ki values, retold here.

Some results are limits rather than exact numbers.

Sequence of PI3K-gamma (P48736 whole entry, species assumed, canonical isoform): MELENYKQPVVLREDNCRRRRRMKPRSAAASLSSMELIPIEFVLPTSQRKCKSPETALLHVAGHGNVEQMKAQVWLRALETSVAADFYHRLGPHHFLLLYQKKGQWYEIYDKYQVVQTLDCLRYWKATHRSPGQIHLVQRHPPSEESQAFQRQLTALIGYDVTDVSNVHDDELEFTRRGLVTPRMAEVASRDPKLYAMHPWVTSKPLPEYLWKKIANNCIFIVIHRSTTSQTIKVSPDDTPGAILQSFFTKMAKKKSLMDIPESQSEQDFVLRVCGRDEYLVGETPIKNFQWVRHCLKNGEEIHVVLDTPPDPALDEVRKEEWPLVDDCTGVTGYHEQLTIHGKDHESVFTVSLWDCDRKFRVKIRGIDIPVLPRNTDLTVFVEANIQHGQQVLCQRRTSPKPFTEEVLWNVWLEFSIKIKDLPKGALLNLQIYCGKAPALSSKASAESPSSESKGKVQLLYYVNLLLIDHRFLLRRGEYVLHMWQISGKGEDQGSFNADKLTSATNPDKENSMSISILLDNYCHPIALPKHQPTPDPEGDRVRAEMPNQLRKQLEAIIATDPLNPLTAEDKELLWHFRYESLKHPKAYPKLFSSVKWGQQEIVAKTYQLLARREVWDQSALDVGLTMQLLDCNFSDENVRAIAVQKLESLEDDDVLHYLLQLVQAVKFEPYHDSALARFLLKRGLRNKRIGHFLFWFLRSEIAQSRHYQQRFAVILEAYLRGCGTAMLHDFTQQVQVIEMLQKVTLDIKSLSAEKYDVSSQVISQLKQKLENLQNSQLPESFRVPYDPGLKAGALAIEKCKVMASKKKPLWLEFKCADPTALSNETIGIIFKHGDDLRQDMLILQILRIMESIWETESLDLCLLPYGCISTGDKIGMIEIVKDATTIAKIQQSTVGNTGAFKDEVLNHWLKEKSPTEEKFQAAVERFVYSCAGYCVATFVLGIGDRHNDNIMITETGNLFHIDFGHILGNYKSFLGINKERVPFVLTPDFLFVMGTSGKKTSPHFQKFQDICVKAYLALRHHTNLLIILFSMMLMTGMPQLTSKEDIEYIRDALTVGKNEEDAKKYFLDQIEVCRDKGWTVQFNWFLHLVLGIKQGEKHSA

This experiment deals with PI3K-gamma (Homo sapiens, UniProt P48736). The experiment in a line: PI3K Inhibition Assay (33P-ATP, PI(4,5)P2 substrate, filter plate scintillation counting). The experiment is classed as biochemical. The following applies: 2 nM enzyme, 3 μM ATP, 30 μM PI(4,5)P2, 30 min at 25° C.; competitive tight binding Ki fit. Here is the method:
Using a Biomek FX from Beckman Coulter, 1.5 μL of each of ten 2.5-fold serial dilutions of a compound of the invention in 100% DMSO was added to an individual well (hereafter, “test well”) in a 96 well polystyrene plate [Corning, Costar Item No. 3697]. One test well also contained 1.5 μL of DMSO with no compound. […] Using a Titertek Multidrop, 50 μL of Reaction Mix [100 mM HEPES pH 7.5, 50 mM NaCl, 10 mM DTT, 0.2 mg/mL BSA, 60 μM phosphatidylinositol(4,5)bisphosphate diC16 (PI(4,5)P2; Avanti Polar Lipids, Cat. No. 840046P) and PI3K isoform of interest (see Table 3 for isoform concentrations)] was added to each well. To initiate the reaction, 50 μL of ATP Mix [20 mM MgCl2, 6 μM ATP (100 μCi/μmmole ^33P-ATP)] was added each well, followed by incubating the wells for 30 min. at 25° C. Final concentrations in each well were 50 mM HEPES 7.5, 10 mM MgCl2, 25 mM NaCl, 5 mM DTT, 0.1 mg/mL BSA, 30 μM PI(4,5)P2, 3 μM ATP, and the PI3K isoform of interest (see Table 3). Final compound concentrations in each well ranged from 10 μM to 1 nM. [table] After incubation, the reactions in each well were quenched by addition of 50 μL of stop solution [30% TCA/Water, 10 mM ATP]. Each quenched reaction mixture was then transferred to a 96 well glass fiber filter plate [Corning, Costar Item No. 3511]. The plate was vacuum-filtered and washed three times with 150 μL of 5% TCA/water in a modified Bio-Tek Instruments ELX-405 Auto Plate Washer. 50 μL of scintillation fluid was added to each well and the plate read on a Perkin-Elmer TopCount™ NXT liquid scintillation counter to obtain ^33P-counts representing inhibition values. The value for the background well was subtracted from the value obtained for each test well and the data were fit to the competitive tight binding Ki equation described by Morrison and Stone, Comments Mol. Cell. Biophys. 2: 347-368, 1985.
Take `Cn1nc(NC(=O)NCCc2cn(CC(F)F)cn2)cc1C#Cc1cccnc1` [Compound 3]: the Ki is below 100 nM. The molecule `COc1cncc(C#Cc2cc(NC(=O)NCCOCC3CC3)nn2C)c1` [Compound 6] displayed a Ki below 100 nM.

Consider `Cn1nc(NC(=O)NCCOCC2CC2)cc1C#Cc1ccc(N)nc1` [Compound 7], for which the Ki was below 100 nM. As to `Cn1nc(NC(=O)NCCOCC2CC2)cc1C#Cc1cccnc1Cl` [Compound 8], the Ki is below 100 nM. Then `Cn1nc(NC(=O)NCCOCC2CC2)cc1C#Cc1ccc2nccnc2c1` [Compound 9], with below 100 nM; and `COc1cc(C#Cc2cc(NC(=O)NC[C@@H](C)OCC3CC3)nn2C)cnc1OC` [Compound 11], with below 100 nM. Under `C[C@@H](CNC(=O)Nc1cc(C#Cc2ccc3nccnc3c2)n(C)n1)OCC1CC1` [Compound 12] stands below 100 nM; under `COc1cc(C#Cc2cc(NC(=O)NC[C@H](C)OCC3CC3)nn2C)cnc1OC` [Compound 14], below 100 nM.

The term Ki denotes the dissociation constant of the complex between target and ligand, obtained from inhibition or displacement.
